Test results from US5801263A, “Process for preparing tertiary phosphines containing phosphinate or phosphonate groups, and novel tertiary phosphines containing phosphinate groups” (Hoechst Aktiengesellschaft, priority 1996, dated 1998).
Where a name gives a salt, the structure may show the parent alone.

Key:
[1] = in water, at 20° C.; cited from earlier work
[2] = Solubility in water; type: physicochemical; conditions: sodium salt, no temperature printed for this value
Procedure: 100 ml of a 3.7% strength by weight sodium hydrogen carbonate solution (44.1 mmol NaHCO3) are added to 15.0 g (44.1 mmol) of (4-diphenylphosphinophenyl)methylphosphinic acid and the mixture stirred at room temperature until CO2 formation has ended. The aqueous solution is completely evaporated and dried under reduced pressure. 15.6 g (97% of theory) of sodium (4-diphenylphosphinophenyl)methylphosphinate are obtained. Solubility in water: 590 g/l

| Molecule | water solubility (literature comparison) [1] [mg/mL] | Solubility in water [2] [mg/mL] |
| --- | --- | --- |
| O=S(=O)(O)c1cccc(P(c2ccccc2)c2ccccc2)c1 [Na[TPPMS], sodium salt of triphenylphosphinemonosulfonate] | 80 |  |
| CP(=O)(O)c1ccc(P(c2ccccc2)c2ccccc2)cc1 [Sodium (4-diphenylphosphinophenyl)methylphosphinate] |  | 590 |
| disodium salt of triphenylphosphinemonophosphonate [Na2 TPPMP] | 380 |  |
